# From the NIST ThermoML archive (doi:10.1021/acs.jced.5b01044)
# Numbers after ± are expanded uncertainties.
# Conditions: Liquid, Ebulliometric method (Recirculating still)
smiles,measurement,setting,value
"OCCO [1,2-ethanediol]",vapor or sublimation pressure,470.22 K,101.3 ± 0.5 kPa
"Cc1ccc(C)cc1 [1,4-dimethylbenzene]",vapor or sublimation pressure,411.21 K,101.3 ± 0.5 kPa
"CC(C)(CO)CO [2,2-dimethyl-1,3-propanediol]",vapor or sublimation pressure,478.95 K,101.3 ± 0.5 kPa
